The record followed here is US7405235B2, “Transcription factor modulating compounds and methods of use thereof” (Paratek Pharmaceuticals, Inc., priority 2001, dated 2008).

This test concerns the target MarA (Escherichia coli, UniProt P0ACH5). Put plainly: MarA-activated selective marker (ccdB) cell survival assay, Example 2. The format is cell-based. More on the design: key: * indicates good inhibition of MarA; ** indicates very good inhibition of MarA. As to conditions: inhibition of MarA: cell survival under conditions of MarA expression (ccdB under MarA-activated promoter). The source says:
In the absence of Mar A, the expression of the selective marker would be silent. For example, in the case of regulation of the cytotoxic gene ccdB, the gene would be silent and the cells would survive. Synthesis of MarA from an inducible plasmid in a suitable host would result in the activation of the MarA responsive activatable promoter and expression of the selective marker. In the case of ccdB, the gene would be expressed and result in cell death. Compounds that inhibit MarA would be identified as those that permit cell survival under conditions of MarA expression.
In the absence of MarA, the expression of the selective marker is silent and cells survive. Synthesis of MarA from an inducible plasmid in a bacterial or yeast cell leads to the activation of the inaA promoter, expression of ccdB, and subsequently results in cell death. Compounds that inhibit MarA are those that permit cell survival under conditions of MarA expression. In Table 4, * indicates good inhibition of MarA and ** indicates very good inhibition of MarA.

Sequence of MarA (P0ACH5 whole entry, looked up): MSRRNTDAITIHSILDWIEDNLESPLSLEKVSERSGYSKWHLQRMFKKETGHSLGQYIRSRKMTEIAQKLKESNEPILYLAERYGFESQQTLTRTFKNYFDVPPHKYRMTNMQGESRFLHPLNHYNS

On to `CSc1nnc2c(n1)OC(c1ccc(I)o1)Nc1ccccc1-2` (centres unmarked) [A, 6-(5-Iodo-furan-2-yl)-3-methylsulfanyl-6,7-dihydro-5-oxa-1,2,4,7-tetraaza-dibenzo[a,c]cycloheptene], for which the MarA inhibition class result was “**”.

As for `N#Cc1c(-c2ccc3c(c2)OCO3)c(C#N)c2nc3ccccc3n2c1N` [AB, 1-Amino-3-benzo[1,3]dioxol-5-yl-benzo[4,5]imidazo[1,2-a]pyridine-2,4-dicarbonitrile], the MarA inhibition class entry is “**”. For `COC(=O)c1ccccc1NC(=O)CSc1nnc(-c2ccco2)n1-c1ccccc1` [AC, 2-[2-(5-Furan-2-yl-4-phenyl-4H-[1,2,4]triazol-3-ylsulfanyl)-acetylamino]-benzoic acid methyl ester], the MarA inhibition class entry is recorded as “*”. With `Cc1cc2nc3s/c(=C/c4c[nH]nc4-c4ccccc4)c(=O)n3c2cc1C` [AD, 6,7-Dimethyl-2-(3-phenyl-1H-pyrazol-4-ylmethylene)-benzo[4,5]imidazo[2,1-b]thiazol-3-one] the entry was “*”; with `CSc1cccc(NC(=O)CSc2nnc(-c3ccc4nonc4c3)n2C)c1` [AE, 2-(5-Benzo[1,2,5]oxadiazol-5-yl-4-methyl-4H-[1,2,4]triazol-3-ylsulfanyl)-N-(3-methylsulfanyl-phenyl)-acetamide], “*”; with `O=C1C(=C2NC(c3ccccn3)C3C(=O)N(c4ccccc4)C(=O)C23)C(=O)c2ccccc21` (centres unmarked) [AF, 4-(1,3-Dioxo-indan-2-ylidene)-2-phenyl-6-pyridin-2-yl-tetrahydro-pyrrolo[3,4-c]pyrrole-1,3-dione], “**”. Turning to `O=[N+]([O-])c1ccc2nc(-c3ccccc3)n(OCc3cccc(C(F)(F)F)c3)c2c1` [AG, 6-Nitro-2-phenyl-1-(3-trifluoromethyl-benzyloxy)-1H-benzoimidazole], the MarA inhibition class result is given as “**”. As for `O=C(O)COn1c(-c2ccccc2)nc2ccc([N+](=O)[O-])cc21` [AH, (6-Nitro-2-phenyl-benzoimidazol-1-yloxy)-acetic acid], the MarA inhibition class result is “**”.

For the compound `O=[N+]([O-])c1ccc2nc(-c3ccccc3)n(OCc3ccccc3)c2c1` [AI, 1-Benzyloxy-6-nitro-2-phenyl-1H-benzoimidazole], the MarA inhibition class result is given as “**”. For `Cc1ccc(COn2c(-c3ccccc3)nc3ccc([N+](=O)[O-])cc32)cc1` [AJ, 1-(4-Methyl-benzyloxy)-6-nitro-2-phenyl-1H-benzoimidazole], the MarA inhibition class entry is recorded as “*”. In the case of `Cn1c(=O)c2c3oc(-c4ccc([N+](=O)[O-])cc4)nc3c(=O)n(-c3ccccc3)c2n(C)c1=O` [AK, 6,8-Dimethyl-2-(4-nitro-phenyl)-5-phenyl-5H,6H-1-oxa-3,5,6,8-tetraaza-cyclopenta[a]naphthalene-4,7,9-trione], the MarA inhibition class entry is “**”. Regarding `Cc1ccc(-c2nc3c(=O)n(-c4ccccc4)c4c(c(=O)n(C)c(=O)n4C)c3o2)cc1` [AL, 6,8-Dimethyl-5-phenyl-2-p-tolyl-5H,6H-1-oxa-3,5,6,8-tetraaza-cyclopenta[a]naphthalene-4,7,9-trione], the MarA inhibition class result was “*”.

Consider `CN(C)c1ccc(-c2cc(=O)c3ccccc3o2)cc1` [AW, 2-[4-(dimethylamino)phenyl]-4H-chromen-4-one], for which the MarA inhibition class entry is “**”. Consider `c1ccc(COn2c(-c3ccccc3)nc3ncccc32)cc1` [AX, 1-(benzyloxy)-2-phenyl-1H-imidazo[4,5-b]pyridine], for which the MarA inhibition class entry is recorded as “**”.

Turning to `c1ccc(CSc2ncc(-c3nnnn3-c3ccccc3)c(-c3ccccc3)n2)cc1` [AY, 2-(benzylthio)-4-phenyl-5-(1-phenyl-1H-1,2,3,4-tetrazol-5-yl)pyrimidine], the MarA inhibition class entry is recorded as “**”. On to `O=c1cc(-c2ccccc2)oc2ccc(F)cc12` [AZ, 6-fluoro-2-phenyl-4H-chromen-4-one], for which the MarA inhibition class result is listed as “**”. With `CCOc1ccc(C2Nc3ccccc3-c3nnc(SC)nc3O2)cc1` (centres unmarked) [B, 6-(4-Ethoxy-phenyl)-3-methylsulfanyl-6,7-dihydro-5-oxa-1,2,4,7-tetraaza-dibenzo[a,c]cycloheptene], the MarA inhibition class entry was “*”.
